Test results taken from patent US20210308089A1, “METHODS OF TREATING AND/OR PREVENTING VIRAL INFECTIONS AND/OR DISEASES CAUSED BY VIRUSES IN A SUBJECT IN NEED THEREOF” (priority 2020, published 2021).

System: statin-treated hypertriglyceridemic patients with cardiovascular disease or at high risk for cardiovascular disease
Assay: REDUCE-IT: safety, treatment-emergent adverse events (incl. bleeding, atrial fibrillation/flutter, gastrointestinal)
[1] = REDUCE-IT safety population, 4 g/day
[2] = serious bleeding TEAE, % of N = 4089
[3] = serious bleeding TEAE, number (%) of N = 4089
[4] = serious bleeding TEAE, patients, N = 4089

CC/C=C\C/C=C\C/C=C\C/C=C\C/C=C\CCCC(=O)OCC [icosapent ethyl, eicosapentaenoic acid ethyl ester]
Serious TEAE (% of N = 4089): (30.6%) | Serious TEAE Leading to Death (% of N = 4089): (2.3%) | Serious TEAE Leading to Withdrawal of Study Drug (% of N = 4089): (2.2%) | Subjects with at Least One TEAE (% of N = 4089): (81.8%) | TEAE Leading to Withdrawal of Study Drug (% of N = 4089): (7.9%) | Pneumonia, serious treatment-emergent adverse event: % of patients (N = 4089, safety population): 2.6% | Pneumonia, serious treatment-emergent adverse event: number of patients (N = 4089, safety population): 105 | Anemia, adverse event rate [1]: 4.7% | Atrial fibrillation, adverse event rate [1]: 5.3% | Diarrhea, adverse event rate [1]: 9% | Gastrointestinal adverse events, rate [1]: 33.0% | Peripheral edema, adverse event rate [1]: 6.5% | Atrial fibrillation or flutter requiring hospitalization (prespecified adjudicated tertiary endpoint) (REDUCE-IT, 4 g/day): 3.1% | Fatal bleeding events (REDUCE-IT, 4 g/day): no fatal bleeding events | Gastrointestinal bleeding (serious) (REDUCE-IT, 4 g/day): 1.5% | Serious central nervous system bleeding (REDUCE-IT, 4 g/day): 0.3% | Tolerability (REDUCE-IT, 4 g/day): well tolerated | Treatment-emergent serious adverse events for bleeding, rate (REDUCE-IT, 4 g/day): 2.7% | Gastrointestinal disorders (TEAE, system organ class, number (%) of N = 4089): 1350 (33.0%) | Anemia (TEAE, number (%) of N = 4089): 191 (4.7%) | Angina pectoris (TEAE, number (%) of N = 4089): 200 (4.9%) | Arthralgia (TEAE, number (%) of N = 4089): 313 (7.7%) | Atrial fibrillation (TEAE, number (%) of N = 4089): 215 (5.3%) | Back pain (TEAE, number (%) of N = 4089): 335 (8.2%) | Bronchitis (TEAE, number (%) of N = 4089): 306 (7.5%) | Cataract (TEAE, number (%) of N = 4089): 233 (5.7%) | Chest pain (TEAE, number (%) of N = 4089): 273 (6.7%) | Constipation (TEAE, number (%) of N = 4089): 221 (5.4%) | Cough (TEAE, number (%) of N = 4089): 241 (5.9%) | Diarrhea (TEAE, number (%) of N = 4089): 367 (9.0%) | Dizziness (TEAE, number (%) of N = 4089): 235 (5.7%) | Dyspnea (TEAE, number (%) of N = 4089): 254 (6.2%) | Fatigue (TEAE, number (%) of N = 4089): 228 (5.6%) | Gastroesophageal Reflux Disease (TEAE, number (%) of N = 4089): 124 (3.0%) | Hypertension (TEAE, number (%) of N = 4089): 320 (7.8%) | Influenza (TEAE, number (%) of N = 4089): 263 (6.4%) | Nasopharyngitis (TEAE, number (%) of N = 4089): 314 (7.7%) | Nausea (TEAE, number (%) of N = 4089): 190 (4.6%) | Osteoarthritis (TEAE, number (%) of N = 4089): 241 (5.9%) | Pain in extremity (TEAE, number (%) of N = 4089): 235 (5.7%) | Peripheral edema (TEAE, number (%) of N = 4089): 267 (6.5%) | Pneumonia (TEAE, number (%) of N = 4089): 263 (6.4%) | Upper respiratory tract infection (TEAE, number (%) of N = 4089): 312 (7.6%) | Urinary tract infection (TEAE, number (%) of N = 4089): 253 (6.2%) | Positively Adjudicated Atrial Fibrillation/Flutter (hospitalization for atrial fibrillation or atrial flutter, number (%) of N = 4089): 127 (3.1%) | Serious TEAE (number of subjects, N = 4089): 1252 | Serious TEAE Leading to Death (number of subjects, N = 4089): 94 | Serious TEAE Leading to Withdrawal of Study Drug (number of subjects, N = 4089): 88 | TEAE Leading to Withdrawal of Study Drug (number of subjects, N = 4089): 321 | Subjects with at Least One TEAE (number of subjects, Safety population N = 4089): 3343 | Aortic Aneurysm Rupture [2]: (0.0%) | Brain Contusion [2]: (0.0%) | Catheter Site Hemorrhage [2]: (0.0%) | Central Nervous System Bleeding [2]: (0.3%) | Cerebral Hemorrhage [2]: (0.0%) | Cystitis Hemorrhagic [2]: (0.0%) | Diverticulitis Intestinal Hemorrhagic [2]: (0.0%) | Diverticulum Intestinal Hemorrhagic [2]: (0.1%) | Duodenal Ulcer Hemorrhage [2]: (0.0%) | Ecchymosis [2]: (0.0%) | Epistaxis [2]: (0.2%) | Esophageal Hemorrhage [2]: (0.0%) | Extravasation Blood [2]: (0.0%) | Gastric Hemorrhage [2]: (0.0%) | Gastric Ulcer Hemorrhage [2]: (0.1%) | Gastrointestinal Angiodysplasia Hemorrhagic [2]: (0.0%) | Gastrointestinal Bleeding [2]: (1.5%) | Gastrointestinal Hemorrhage [2]: (0.6%) | Genital Hemorrhage [2]: (0.0%) | Hemarthrosis [2]: (0.0%) | Hematemesis [2]: (0.1%) | Hematochezia [2]: (0.0%) | Hematoma [2]: (0.0%) | Hematuria [2]: (0.2%) | Hemoptysis [2]: (0.0%) | Hemorrhagic Anemia [2]: (0.1%) | Hemorrhagic Duodenitis [2]: (0.0%) | Hemorrhagic Transformation Stroke [2]: (0.0%) | Hemorrhoidal Hemorrhage [2]: (0.1%) | Hemothorax [2]: (0.0%) | Immune Thrombocytopenic Purpura [2]: (0.0%) | Intra-Abdominal Hemorrhage [2]: (0.0%) | Intracranial Hemorrhage [2]: (0.0%) | Large Intestinal Hemorrhage [2]: (0.0%) | Lower Gastrointestinal Hemorrhage [2]: (0.1%) | Mallory-Weiss Syndrome [2]: (0.0%) | Melaena [2]: (0.1%) | Menorrhagia [2]: (0.0%) | Mouth Hemorrhage [2]: (0.0%) | Other Bleeding [2]: (1.0%) | Pancreatitis Hemorrhagic [2]: (0.0%) | Patients with Bleeding-Related Disorders [2]: (2.7%) | Peptic Ulcer Hemorrhage [2]: (0.0%) | Pericardial Hemorrhage [2]: (0.0%) | Post Procedural Hematoma [2]: (0.0%) | Post Procedural Hematuria [2]: (0.0%) | Post Procedural Hemorrhage [2]: (0.1%) | Rectal Hemorrhage [2]: (0.2%) | Renal Hemorrhage [2]: (0.0%) | Retinal Hemorrhage [2]: (0.0%) | Retroperitoneal Hematoma [2]: (0.0%) | Retroperitoneal Hemorrhage [2]: (0.0%) | Shock Hemorrhagic [2]: (0.0%) | Subarachnoid Hemorrhage [2]: (0.0%) | Subdural Hematoma [2]: (0.2%) | Subdural Hemorrhage [2]: (0.0%) | Traumatic Hematoma [2]: (0.0%) | Traumatic Intracranial Hemorrhage [2]: (0.0%) | Ulcer Hemorrhage [2]: (0.0%) | Upper Gastrointestinal Hemorrhage [2]: (0.1%) | Urinary Bladder Hemorrhage [2]: (0.0%) | Bleeding related disorders [3]: 111 (2.7%) | Central Nervous System Bleeding [3]: 14 (0.3%) | Gastrointestinal Bleeding [3]: 62 (1.5%) | Other Bleeding [3]: 41 (1.0%) | Aortic Aneurysm Rupture [4]: 1 | Brain Contusion [4]: 0 | Catheter Site Hemorrhage [4]: 0 | Central Nervous System Bleeding [4]: 14 | Cerebral Hemorrhage [4]: 0 | Cystitis Hemorrhagic [4]: 2 | Diverticulitis Intestinal Hemorrhagic [4]: 0 | Diverticulum Intestinal Hemorrhagic [4]: 3 | Duodenal Ulcer Hemorrhage [4]: 2 | Ecchymosis [4]: 1 | Epistaxis [4]: 7 | Esophageal Hemorrhage [4]: 0 | Extravasation Blood [4]: 1 | Gastric Hemorrhage [4]: 1 | Gastric Ulcer Hemorrhage [4]: 3 | Gastrointestinal Angiodysplasia Hemorrhagic [4]: 1 | Gastrointestinal Bleeding [4]: 62 | Gastrointestinal Hemorrhage [4]: 26 | Genital Hemorrhage [4]: 1 | Hemarthrosis [4]: 0 | Hematemesis [4]: 3 | Hematochezia [4]: 1 | Hematoma [4]: 1 | Hematuria [4]: 8 | Hemoptysis [4]: 1 | Hemorrhagic Anemia [4]: 4 | Hemorrhagic Duodenitis [4]: 0 | Hemorrhagic Transformation Stroke [4]: 1 | Hemorrhoidal Hemorrhage [4]: 3 | Hemothorax [4]: 1 | Immune Thrombocytopenic Purpura [4]: 0 | Intra-Abdominal Hemorrhage [4]: 1 | Intracranial Hemorrhage [4]: 0 | Large Intestinal Hemorrhage [4]: 1 | Lower Gastrointestinal Hemorrhage [4]: 5 | Mallory-Weiss Syndrome [4]: 1 | Melaena [4]: 3 | Menorrhagia [4]: 1 | Mouth Hemorrhage [4]: 0 | Other Bleeding [4]: 41 | Pancreatitis Hemorrhagic [4]: 1 | Patients with Bleeding-Related Disorders [4]: 111 | Peptic Ulcer Hemorrhage [4]: 1 | Pericardial Hemorrhage [4]: 0 | Post Procedural Hematoma [4]: 1 | Post Procedural Hematuria [4]: 0 | Post Procedural Hemorrhage [4]: 5 | Rectal Hemorrhage [4]: 10 | Renal Hemorrhage [4]: 0 | Retinal Hemorrhage [4]: 1 | Retroperitoneal Hematoma [4]: 0 | Retroperitoneal Hemorrhage [4]: 1 | Shock Hemorrhagic [4]: 2 | Subarachnoid Hemorrhage [4]: 2 | Subdural Hematoma [4]: 9 | Subdural Hemorrhage [4]: 2 | Traumatic Hematoma [4]: 2 | Traumatic Intracranial Hemorrhage [4]: 0 | Ulcer Hemorrhage [4]: 1 | Upper Gastrointestinal Hemorrhage [4]: 3 | Urinary Bladder Hemorrhage [4]: 1
